In PubChem BioAssay (NCI):
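These data come from cells grown in 96-well plates and exposed to compound for 48 hours at five concentrations. TGI: total growth inhibition.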

Legend:
Assay in all cases: NCI tumour cell line growth inhibition, 48 h
[1] = system: SF-268 CNS
[2] = system: CCRF-CEM leukemia
[3] = system: SK-MEL-2 melanoma
[4] = system: DU-145 prostate
[5] = system: A549 NSCLC
[6] = system: MDA-MB-231 breast
[7] = system: SNB-19 CNS
[8] = system: OVCAR-3 ovarian
[9] = system: IGROV1 ovarian
[10] = system: BT-549 breast
[11] = system: OVCAR-8 ovarian
[12] = system: 786-0 renal
[13] = system: HL-60(TB) leukemia
[14] = system: EKVX NSCLC
[15] = system: TK-10 renal
[16] = system: HT29 colon
[17] = system: HOP-92 NSCLC
[18] = system: K-562 leukemia
[19] = system: SN12C renal
[20] = system: OVCAR-5 ovarian
[21] = system: NCI-H23 lung
[22] = system: SNB-75 CNS
[23] = system: HCT-116 colon
[24] = system: M14 melanoma
[25] = system: SF-295 CNS
[26] = system: MDA-MB-435
[27] = system: NCI/ADR-RES ovarian
[28] = system: COLO 205 colon
[29] = system: SK-MEL-5 melanoma
[30] = system: SK-MEL-28 melanoma
[31] = system: NCI-H522 lung
[32] = system: UACC-62 melanoma
[33] = system: SF-539 CNS
[34] = system: MCF7 breast
[35] = system: U251 CNS
[36] = system: PC-3 prostate
[37] = system: CAKI-1 renal
[38] = system: OVCAR-4 ovarian
[39] = system: NCI-H460 lung
[40] = system: T-47D breast
[41] = system: SW-620 colon
[42] = system: UACC-257 melanoma
[43] = system: LOX IMVI melanoma
[44] = system: MDA-N
[45] = system: SR leukemia
[46] = system: HS 578T breast
[47] = system: ACHN renal
[48] = system: MOLT-4 leukemia
[49] = system: HOP-62 NSCLC
[50] = system: UO-31 renal
[51] = system: KM12 colon
[52] = system: RXF 393 renal
[53] = system: HCT-15 colon
[54] = system: HCC-2998 colon
[55] = system: A498 renal
[56] = system: NCI-H226 lung
[57] = system: SK-OV-3 ovarian
[58] = system: MALME-3M melanoma
[59] = system: RPMI-8226 leukemia
[60] = system: LXFL 529 NSCLC
[61] = system: DMS 273 small cell lung
[62] = system: DLD-1 colon
[63] = system: KM20L2 colon

CC1(C)C2CCC1(C)C(OC(=O)/C=C/C(=O)OC1CC3CCC1(C)C3(C)C)C2 (stereo unspecified)
TGI [1]: > 100 µM
TGI [2]: 31.1 µM
TGI [3]: > 100 µM
TGI [4]: > 100 µM
TGI [5]: > 100 µM
TGI [6]: > 100 µM
TGI [7]: > 100 µM
TGI [8]: > 100 µM
TGI [9]: > 100 µM
TGI [10]: > 100 µM
TGI [11]: > 100 µM
TGI [12]: > 100 µM
TGI [13]: 40.7 µM
TGI [14]: > 100 µM
TGI [15]: > 100 µM
TGI [16]: > 100 µM
TGI [17]: > 100 µM
TGI [18]: > 100 µM
TGI [19]: > 100 µM
TGI [20]: > 100 µM
TGI [21]: > 100 µM
TGI [22]: 86.6 µM
TGI [23]: > 100 µM
TGI [24]: > 100 µM
TGI [25]: > 100 µM
TGI [26]: > 100 µM
TGI [27]: > 100 µM
TGI [28]: > 100 µM
TGI [29]: > 100 µM
TGI [30]: 40.2 µM
TGI [31]: > 100 µM
TGI [32]: > 100 µM
TGI [33]: > 100 µM
TGI [34]: 67.4 µM
TGI [35]: > 100 µM
TGI [36]: > 100 µM
TGI [37]: > 100 µM
TGI [38]: > 100 µM
TGI [39]: > 100 µM
TGI [40]: > 100 µM
TGI [41]: > 100 µM
TGI [42]: > 100 µM
TGI [43]: 49.9 µM
TGI [44]: > 100 µM
TGI [45]: 55.7 µM
TGI [46]: > 100 µM
TGI [47]: > 100 µM
TGI [48]: 45.9 µM
TGI [49]: > 100 µM
TGI [50]: > 100 µM
TGI [51]: > 100 µM
TGI [52]: > 100 µM
TGI [53]: > 100 µM
TGI [54]: > 100 µM
TGI [55]: > 100 µM

Clc1cc(Cl)c2cc3cccc[n+]3cc2c1Cl
TGI [1]: 26.5 µM
TGI [2]: 37.2 µM
TGI [3]: 30.1 µM
TGI [4]: 34 µM
TGI [5]: 34.1 µM
TGI [6]: 48.9 µM
TGI [7]: 28.7 µM
TGI [8]: 26.8 µM
TGI [10]: 23.3 µM
TGI [11]: 31 µM
TGI [12]: 46.7 µM
TGI [56]: 43.6 µM
TGI [13]: 29.7 µM
TGI [14]: 30.8 µM
TGI [15]: 40.2 µM
TGI [16]: 30.7 µM
TGI [17]: 21.7 µM
TGI [57]: 30.1 µM
TGI [18]: 45.4 µM
TGI [19]: 39.5 µM
TGI [58]: 53.7 µM
TGI [20]: 38.7 µM
TGI [21]: 30.4 µM
TGI [22]: 24.7 µM
TGI [23]: > 100 µM
TGI [24]: 39 µM
TGI [25]: 39.8 µM
TGI [59]: 45.7 µM
TGI [26]: 32.7 µM
TGI [27]: 33.2 µM
TGI [28]: 28.1 µM
TGI [29]: 30.5 µM
TGI [30]: 29.9 µM
TGI [32]: 32.7 µM
TGI [33]: 32.4 µM
TGI [34]: 31.9 µM
TGI [35]: 34.7 µM
TGI [36]: 29.2 µM
TGI [37]: 21 µM
TGI [38]: 30.2 µM
TGI [39]: 32.2 µM
TGI [40]: 23.9 µM
TGI [41]: 34.3 µM
TGI [42]: 28.9 µM
TGI [43]: 34.7 µM
TGI [44]: 32.8 µM
TGI [45]: 32.9 µM
TGI [46]: 38.7 µM
TGI [47]: 31.7 µM
TGI [48]: 31.3 µM
TGI [49]: 31.6 µM
TGI [50]: 28.4 µM
TGI [53]: 36.1 µM
TGI [54]: 36.6 µM
TGI [55]: 34 µM

COc1cc(/C=N/c2nc3cc4sc(/N=C/c5cc(OC)c(OC)c(OC)c5)nc4cc3s2)cc(OC)c1OC
TGI [1]: > 100 µM
TGI [3]: > 100 µM
TGI [4]: > 100 µM
TGI [5]: > 100 µM
TGI [6]: > 100 µM
TGI [7]: > 100 µM
TGI [8]: > 100 µM
TGI [9]: > 100 µM
TGI [10]: > 100 µM
TGI [11]: > 100 µM
TGI [12]: > 100 µM
TGI [56]: > 100 µM
TGI [13]: > 100 µM
TGI [14]: > 100 µM
TGI [15]: > 100 µM
TGI [16]: > 100 µM
TGI [17]: > 100 µM
TGI [57]: > 100 µM
TGI [18]: > 100 µM
TGI [19]: > 100 µM
TGI [58]: > 100 µM
TGI [20]: > 100 µM
TGI [21]: > 100 µM
TGI [22]: > 100 µM
TGI [23]: > 100 µM
TGI [24]: > 100 µM
TGI [25]: > 100 µM
TGI [59]: > 100 µM
TGI [26]: > 100 µM
TGI [27]: > 100 µM
TGI [28]: > 100 µM
TGI [29]: > 100 µM
TGI [30]: 39.1 µM
TGI [31]: > 100 µM
TGI [32]: > 100 µM
TGI [33]: 40.8 µM
TGI [34]: > 100 µM
TGI [35]: > 100 µM
TGI [36]: > 100 µM
TGI [37]: > 100 µM
TGI [38]: > 100 µM
TGI [39]: > 100 µM
TGI [40]: > 100 µM
TGI [41]: > 100 µM
TGI [42]: > 100 µM
TGI [43]: > 100 µM
TGI [44]: 81.7 µM
TGI [45]: > 100 µM
TGI [46]: > 100 µM
TGI [47]: > 100 µM
TGI [48]: > 100 µM
TGI [49]: > 100 µM
TGI [50]: > 100 µM
TGI [51]: > 100 µM
TGI [52]: > 100 µM
TGI [53]: > 100 µM
TGI [54]: > 100 µM
TGI [55]: > 100 µM

c1ccncc1
TGI [60]: > 100 µM
TGI [1]: > 100 µM
TGI [2]: > 100 µM
TGI [3]: > 100 µM
TGI [5]: > 100 µM
TGI [7]: > 100 µM
TGI [8]: > 100 µM
TGI [9]: > 100 µM
TGI [11]: > 100 µM
TGI [12]: > 100 µM
TGI [56]: > 100 µM
TGI [13]: > 100 µM
TGI [14]: > 100 µM
TGI [15]: > 100 µM
TGI [16]: > 100 µM
TGI [17]: > 100 µM
TGI [61]: > 100 µM
TGI [57]: > 100 µM
TGI [18]: > 100 µM
TGI [19]: > 100 µM
TGI [58]: > 100 µM
TGI [20]: > 100 µM
TGI [21]: > 100 µM
TGI [22]: > 100 µM
TGI [23]: > 100 µM
TGI [24]: > 100 µM
TGI [25]: > 100 µM
TGI [59]: > 100 µM
TGI [62]: > 100 µM
TGI [28]: > 100 µM
TGI [29]: > 100 µM
TGI [30]: > 100 µM
TGI [31]: > 100 µM
TGI [32]: > 100 µM
TGI [33]: > 100 µM
TGI [35]: > 100 µM
TGI [37]: > 100 µM
TGI [38]: > 100 µM
TGI [39]: > 100 µM
TGI [41]: > 100 µM
TGI [42]: > 100 µM
TGI [43]: > 100 µM
TGI [45]: > 100 µM
TGI [63]: > 100 µM
TGI [47]: > 100 µM
TGI [48]: > 100 µM
TGI [49]: > 100 µM
TGI [50]: > 100 µM
TGI [51]: > 100 µM
TGI [52]: > 100 µM
TGI [53]: > 100 µM
TGI [54]: > 100 µM
TGI [55]: > 100 µM
